According to patent US20260000079A1, “COMPOSITIONS AND METHODS FOR MODULATING IMMUNITY IN PLANTS” (BOYCE THOMPSON INSTITUTE FOR PLANT RESEARCH, INC., priority 2019, published 2026):

What was measured:
[1] = system: defense-response genes in Arabidopsis leaves; experiment: qRT-PCR of defense-response genes in Arabidopsis leaves after root treatment; assay type: in vivo, Arabidopsis thaliana; settings: leaves 24 hours after root treatment with 1 μM
Procedure: (§1) FIG. 4A provides a schematic of the experimental designs for assessing activation of defense pathways and resistance to nematodes and bacteria. […] Bacterial growth was assayed 3 days post inoculation. Data are averages±s.d. (n=17). […] Arabidopsis seedlings were treated with buffer or the indicated concentrations of ascr #18 for 48 hours before inoculation with approximately 300 freshly hatched M. incognita J2 larvae. The numbers of root galls of infected plants were counted 6 weeks post inoculation. Data are averages±s.d. (n≥15). […] Arabidopsis seedlings were treated with the indicated concentrations of ascr #18 for 48 hours before transfer into 12-well plates containing Pluronic® F-127 gel with ˜200 freshly hatched M. incognita J2 larvae. Larvae touching root tips (FIG. 4D) or the whole area of roots (FIG. 4E) were counted at 6 hours post seedling transfer. Data are average±s.d. (n=12). […] Transcript levels were determined by qRT-PCR and plotted as relative fold-change compared to mock treated plants. Data are averages±s.d (n≥6). *P≤0.05; **P≤0.005; ***P≤0.0005; two-tailed t-test.
For each replicate, total RNA from Arabidopsis leaves were isolated from a pool of one leaf from each of three plants. For the seedling RNA analyses, Arabidopsis roots were collected from 30-40 seedlings for each replicates. Total RNA was isolated using Qiagen RNeasy® Plant Mini Kit (Qiagen) according to the manufacturer's instructions. DNAse treatment was done using DNA-Free™ Kit (Ambion) following the manufacturer's instructions. […]
For quantitative real-time PCR (qRT-PCR), transcripts were amplified using SYBR® Premix Ex-Taq™ (Takara) from 2.5 μL of 5×-diluted cDNA in a total 20 μL reaction using 0.1 μL of 100 μM gene-specific primers. […] The relative fold change was calculated according to the 2-ΔΔCt method (Manosalva, et al. (2015) Nat. Commun. 6:7795; Floss, et al. (2013) Proc. Natl. Acad. Sci. 110: E5025-34). […]
Next, it was determined whether differences in activation of defense signaling in wildtype and acx1acx5 plants underlie the observed differences in resistance to nematodes. […]

Meloidogyne incognita = experiment: Arabidopsis nematode infection assay (root galls); assay type: in vivo; settings: 48 hours root pretreatment
Procedure: as §1
For Arabidopsis nematode infection assays, Meloidogyne incognita was propagated and hatched as described (Manosalva, et al. (2015) Nat. Commun. 6:7795). Briefly, M. incognita were propagated on tomato (Solanum lycopersicum cv. Tiny Tim). M. incognita eggs were then isolated from egg masses on tomato roots with 0.5% sodium hypochlorite and rinsed with water on a 25-μm sieve. Collected nematode eggs were treated in a solution of 0.02% sodium azide for 20 minutes, and then hatched over water containing 1.5 mg/mL gentamycin sulfate and 0.05 mg/mL nystatin at room temperature on a Baermann pan for three days. Hatched second-stage juveniles (J2) were collected, surface sterilized with an aqueous solution of mercuric chloride (0.004%) and sodium azide (0.004%) for 10 minutes, and rinsed three times with sterile distilled water. […] Galls for M. incognita were counted under a microscope six weeks after inoculation. […]

[2] = system: bacteria, viruses, fungi, oomycetes, and nematodes; settings: Manosalva, et al. (2015); cited from earlier work

In the case of `CC1O[C@@H](O[C@@H](C)CCCCCCCCC(=O)O)C(O)C[C@H]1O` (stereo in doubt) [ascr #18, (10R)-(3′R,5′R-dihydroxy-6′S-methyl-(2H)-tetrahydropyran-2-yloxy)-undecanoic acid], the “induction of MAPK-related FRK1” value ([1]; acx1acx5 vs wildtype) was “slightly weaker in the mutant”, the “induction of jasmonic acid signaling genes (PDF1.2, AOS, LOX2)” value ([1]; wildtype vs acx1acx5) was “to similar extents” and the “induction of salicylic acid signaling genes (PR-1, PR-4)” value ([1]; wildtype vs acx1acx5) was “to similar extents”. For the same molecule, the “protection against M. incognita (root galls 6 weeks post inoculation)” value (“protection against M. incognita” for short) (Meloidogyne incognita; acx1acx5 mutant) was “no effect”, the “protection against M. incognita” value (Meloidogyne incognita; wildtype, 10 nM) was “significant protection” and the “protection against M. incognita” value (Meloidogyne incognita; wildtype, 50 nM) was “significant protection”. The “resistance of plants to pathogens” value [2] was “enhance resistance of monocot and dicot plants to a wide range of pathogens”.
